Some test systems named below: A498; BT-549; CCRF-CEM; COLO 205; EKVX; HCT-15; HOP-92; K562; M14; NCI-H522; OVCAR-3; OVCAR-5; OVCAR-8; RXF 393; SF-295; SN12C; UACC-257; UO-31; ACHN.
Holding throughout (test): NCI tumour cell line growth inhibition, 48 h

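In this assay, cells in 96-well plates receive the compound at five concentrations for 48 hours. Endpoints are linearly interpolated between the surrounding concentrations. GI50 is the concentration that inhibits growth by half.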 Calls of active or inactive are those of the source. No stated cut-off is given here; in the data, active = GI50 up to about 1.1 µM and inactive = higher.

Take `COc1cc(C2SCC(=O)N2c2ccc(Cl)cc2)cc(OC)c1OC` (configuration not stated): the GI50 with A498 is > 100 µM (inactive); with BT-549 it was 20.2 µM (inactive); in the experiment with CCRF-CEM, 1.99 µM (inactive); in the experiment with COLO 205 it was 1.94 µM (inactive); in the experiment on EKVX it was 3.15 µM (inactive); with HCT-15, 13.9 µM. Further, the GI50 in the experiment with HOP-92 was > 49.1 µM (inactive); in the experiment with K562, 0.11 µM (active); with M14 it was 0.266 µM (active); with NCI-H522, 31.8 µM (inactive); with OVCAR-3, 22.2 µM (inactive); with OVCAR-5, 0.252 µM (active). For the same molecule, the GI50 is > 45.4 µM (inactive) with OVCAR-8; 19.1 µM (inactive) with RXF 393; 4.95 µM (inactive) in the experiment on SF-295; > 39.5 µM (inactive) in the experiment with SN12C; 22.6 µM (inactive) with UACC-257; 1.19 µM (inactive) in the experiment on UO-31.
On to `Oc1ccc2ccccc2c1CN(Cc1c(O)ccc2ccccc12)C1CCCCC1`, for which the GI50 was 27 µM (inactive) in the experiment with A498; 18.3 µM (inactive) in the experiment with ACHN; 19.8 µM (inactive) with BT-549; 27.3 µM (inactive) with CCRF-CEM; 16.1 µM (inactive) in the experiment with COLO 205; 15.4 µM (inactive) in the experiment with EKVX. The GI50 in the experiment on HCT-15 was 20.6 µM; with HOP-92 it was 18 µM (inactive); with K562, 19.5 µM (inactive); in the experiment with M14, 15.2 µM (inactive); in the experiment with NCI-H522, 13.4 µM (inactive); in the experiment with OVCAR-3 it was 19.1 µM (inactive). In addition, the GI50 in the experiment on OVCAR-5 was 41.9 µM (inactive); with OVCAR-8 it was 21.3 µM (inactive); in the experiment on RXF 393, 18.2 µM (inactive); with SF-295 it was 37 µM (inactive); in the experiment on SN12C, 14.4 µM (inactive); in the experiment with UACC-257 it was 15.3 µM (inactive). In addition, the GI50 with UO-31 was 17.1 µM (inactive).
In the case of `C/C(=N\O)c1cccc[n+]1Cc1ccccc1`, the GI50 in the experiment on A498, in the experiment with ACHN, in the experiment with BT-549, in the experiment on CCRF-CEM, in the experiment on COLO 205 and with EKVX was > 100 µM (inactive) in each case. Further, the GI50 was greater than 100 µM in the experiment with HCT-15; > 100 µM (inactive) in the experiment on HOP-92; > 100 µM (inactive) in the experiment on K562; > 100 µM (inactive) in the experiment with M14; > 100 µM (inactive) with NCI-H522; > 100 µM (inactive) in the experiment on OVCAR-3. The GI50 with OVCAR-5, with OVCAR-8, with RXF 393, with SF-295, with SN12C and in the experiment with UACC-257 was > 100 µM (inactive) each time. Moreover, in the experiment with UO-31, the GI50 was > 100 µM (inactive).
Regarding `Cc1ccc(S(=O)(=O)N[C@@H](Cc2ccccc2)C(=O)CCl)cc1` [TPCK], the GI50 in the experiment with A498 is 17.8 µM (inactive); in the experiment on ACHN, 16.5 µM (inactive); in the experiment with BT-549 it was 11.7 µM (inactive); in the experiment with CCRF-CEM, 3.7 µM (inactive); in the experiment on COLO 205, 17.5 µM (inactive); in the experiment on EKVX, 17.2 µM (inactive). The GI50 in the experiment with HCT-15 was 16 µM; in the experiment with HOP-92, 13.6 µM (inactive); in the experiment with K562, 9.75 µM (inactive); in the experiment on M14, 13.4 µM (inactive); in the experiment with NCI-H522 it was 9.68 µM (inactive); in the experiment with OVCAR-3, 15.8 µM (inactive). Also, the GI50 in the experiment with OVCAR-5 was 16.6 µM (inactive); with OVCAR-8, 13.7 µM (inactive); in the experiment with RXF 393, 1.38 µM (inactive); with SF-295 it was 18.9 µM (inactive); in the experiment on SN12C it was 12.7 µM (inactive); in the experiment on UACC-257, 12.3 µM (inactive). Moreover, the GI50 in the experiment with UO-31 was 14.1 µM (inactive).
With `COc1cc2cc(C(=O)N3CC(CCl)c4ccc([N+](=O)[O-])cc43)[nH]c2c(OC)c1OC` (configuration not stated), the GI50 was > 100 µM (inactive) in the experiment on A498; > 100 µM (inactive) in the experiment on ACHN; > 100 µM (inactive) in the experiment with BT-549; > 100 µM (inactive) with CCRF-CEM; > 100 µM (inactive) in the experiment with COLO 205; 30.8 µM (inactive) in the experiment with EKVX. For the same molecule, the GI50 in the experiment on HCT-15 is greater than 100 µM; with HOP-92, > 100 µM (inactive); in the experiment on K562 it was > 100 µM (inactive); with M14, > 100 µM (inactive); with NCI-H522, > 100 µM (inactive); in the experiment with OVCAR-3, > 100 µM (inactive). Moreover, the GI50 with OVCAR-5, in the experiment with OVCAR-8, in the experiment with RXF 393, with SF-295, in the experiment on SN12C and in the experiment on UACC-257 was > 100 µM (inactive) in each case. In addition, the GI50 in the experiment with UO-31 was > 100 µM (inactive).
For the molecule `O=c1[nH]nc(Cc2ccccc2)n1/N=C/c1ccncc1`, the GI50 was 39 µM (inactive) in the experiment on A498; > 100 µM (inactive) in the experiment on ACHN; 68.9 µM (inactive) in the experiment on BT-549; > 100 µM (inactive) in the experiment on CCRF-CEM; > 100 µM (inactive) with COLO 205; > 100 µM (inactive) with EKVX. Also, the GI50 in the experiment on HCT-15 was greater than 100 µM; with HOP-92 it was > 100 µM (inactive); in the experiment on K562 it was > 100 µM (inactive); with M14 it was > 100 µM (inactive); with NCI-H522 it was > 100 µM (inactive); with OVCAR-3, > 100 µM (inactive). For the same molecule, the GI50 in the experiment with OVCAR-5, with OVCAR-8, in the experiment on RXF 393, with SF-295, with SN12C and in the experiment on UACC-257 was > 100 µM (inactive) throughout. Moreover, the GI50 with UO-31 was > 100 µM (inactive).
`CN(C)c1ccc(/C=C2\N=C(c3ccccc3)N(/N=C3\C(=O)Nc4ccccc43)C2=O)cc1`: the GI50 was 73.6 µM (inactive) in the experiment on A498; 65.9 µM (inactive) in the experiment with ACHN; > 100 µM (inactive) in the experiment on BT-549; 37.2 µM (inactive) in the experiment with CCRF-CEM; 30.2 µM (inactive) in the experiment with COLO 205; 27 µM (inactive) in the experiment on EKVX. The GI50 in the experiment on HCT-15 is 61.5 µM; in the experiment on HOP-92, 16.9 µM (inactive); with K562, 32 µM (inactive); with M14 it was 91.4 µM (inactive); with NCI-H522 it was 23.4 µM (inactive); in the experiment on OVCAR-3, 16.8 µM (inactive). In addition, the GI50 in the experiment on OVCAR-5 is > 100 µM (inactive); in the experiment with OVCAR-8, 55 µM (inactive); in the experiment with RXF 393 it was 45.1 µM (inactive); with SF-295 it was 69.8 µM (inactive); in the experiment on SN12C it was 56.9 µM (inactive); with UACC-257, 85.3 µM (inactive). Besides, in the experiment on UO-31, the GI50 is 36 µM (inactive).
As to `CN(C)CCCn1c(Cc2ccc(Cl)cc2)nc2cc(C(F)(F)F)ccc21`, the GI50 in the experiment with A498 is 12.7 µM (inactive); in the experiment with ACHN, 13.2 µM (inactive); in the experiment on BT-549 it was 17 µM (inactive); in the experiment on CCRF-CEM it was 13 µM (inactive); with COLO 205, 10.7 µM (inactive); with EKVX, 17.4 µM (inactive). The GI50 is 17.1 µM in the experiment with HCT-15; 9.98 µM (inactive) in the experiment on HOP-92; 6.41 µM (inactive) in the experiment on K562; 12.7 µM (inactive) in the experiment on M14; 14.6 µM (inactive) with NCI-H522; 14.5 µM (inactive) in the experiment with OVCAR-3. Also, the GI50 in the experiment on OVCAR-5 is 17.7 µM (inactive); with OVCAR-8 it was 17.3 µM (inactive); with RXF 393 it was 9.06 µM (inactive); in the experiment on SF-295 it was 17.5 µM (inactive); in the experiment with SN12C, 15.1 µM (inactive); with UACC-257, 15.6 µM (inactive). In addition, in the experiment on UO-31, the GI50 is 0.301 µM (active).
Turning to `Cc1ccc(-c2cn3c(nc4ccccc43)c(C)n2)cc1`, the GI50 in the experiment with A498 was 19.8 µM (inactive); in the experiment with ACHN, 30.3 µM (inactive); in the experiment on BT-549 it was 25.9 µM (inactive); in the experiment with CCRF-CEM, 85.3 µM (inactive); in the experiment with COLO 205 it was 49.9 µM (inactive); in the experiment with EKVX, > 54 µM (inactive). The GI50 with HCT-15 is 25.2 µM; with HOP-92, 8.93 µM (inactive); with K562, 43.5 µM (inactive); with M14, 39.5 µM (inactive); with NCI-H522 it was 31.2 µM (inactive); in the experiment with OVCAR-3, 48 µM (inactive). Besides, the GI50 in the experiment with OVCAR-5 is 51.6 µM (inactive); in the experiment on OVCAR-8, 36 µM (inactive); in the experiment with RXF 393, 21.8 µM (inactive); in the experiment with SF-295, > 58.1 µM (inactive); with SN12C, 55.6 µM (inactive); in the experiment on UACC-257, > 100 µM (inactive). For the same molecule, the GI50 in the experiment with UO-31 is 2.71 µM (inactive).
On to `CC(C)NC(=O)OCc1c(COC(=O)NC(C)C)c(-c2cc[n+](COC(=O)C(C)(C)C)cc2)n2c1CCC2`, for which the GI50 with A498 was > 100 µM (inactive); in the experiment with ACHN, 61.9 µM (inactive); with BT-549, > 100 µM (inactive); in the experiment with CCRF-CEM it was > 100 µM (inactive); in the experiment with COLO 205 it was > 100 µM (inactive); in the experiment with EKVX it was > 100 µM (inactive). In addition, the GI50 in the experiment on HCT-15 is greater than 100 µM; in the experiment with HOP-92 it was > 100 µM (inactive); in the experiment on K562, > 100 µM (inactive); in the experiment with M14, > 100 µM (inactive); in the experiment with NCI-H522, > 100 µM (inactive); with OVCAR-3, > 100 µM (inactive). Moreover, the GI50 in the experiment with OVCAR-5, in the experiment with OVCAR-8, in the experiment with RXF 393, with SF-295, in the experiment on SN12C and in the experiment with UACC-257 was > 100 µM (inactive) in each case. Further, the GI50 with UO-31 was > 100 µM (inactive).
Regarding `O=C1c2cc(Br)ccc2-c2ccc3c4ccc5c6c(ccc(c7ccc1c2c73)c64)C(=O)c1cc(Br)ccc1-5`, the GI50 is > 100 µM (inactive) in the experiment with A498; > 100 µM (inactive) in the experiment on ACHN; > 100 µM (inactive) in the experiment with BT-549; 0.787 µM (active) with CCRF-CEM; > 100 µM (inactive) in the experiment on COLO 205; > 100 µM (inactive) in the experiment with EKVX. Further, the GI50 was greater than 100 µM in the experiment with HCT-15; > 100 µM (inactive) in the experiment with HOP-92; > 100 µM (inactive) in the experiment on K562; > 100 µM (inactive) in the experiment with M14; > 100 µM (inactive) in the experiment on NCI-H522; > 100 µM (inactive) with OVCAR-3. Also, the GI50 with OVCAR-5, in the experiment on OVCAR-8, with RXF 393, with SN12C, in the experiment on UACC-257 and with UO-31 was > 100 µM (inactive) throughout.

For the origin of these results see ChEMBL document CHEMBL1201862, “PubChem BioAssay data set” (2004).
